For twelve compounds, GI50 and TGI results are on record in PubChem BioAssay (NCI).

Molecules are shown by their SMILES. Several values for one entry are separate records, joined by “and”; a condition that tells them apart may be missing. Equal entries are not always repeated.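 Protocol summary: plate cells (96-well), add compound at 5 concentrations, incubate 48 h, interpolate endpoints linearly. GI50 marks 50% less growth. The concentration for full growth arrest is given as TGI.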 Some results are limits rather than exact numbers.

Test in all cases: DTP human tumour cell line panel, 48 h
Assay [1] relates to MALME-3M melanoma.
For assay [2], the system named is RXF 393 renal.
In assay [3] the test system is NCI-H226 lung.
Assay [4] relates to HOP-92 NSCLC.
In assay [5] the test system is MDA-MB-231 breast.
For assay [6], the system named is NCI-H460 lung.
Assay [7] relates to OVCAR-5 ovarian.
Assay [8] relates to IGROV1 ovarian.

What is called GI50 is the concentration at which growth is held to half of that of the control. The TGI is the concentration giving total growth inhibition. For the compound `Cc1cn(Cc2ccc(C34CC5CC(CC(C5)C3)C4)c(O)c2)c(=O)[nH]c1=O`, the GI50 is 14.6 µM in assay [1]; 1.82 µM in assay [2]; 15.4 µM in assay [3]; 14.4 µM in assay [4]; 15.5 µM in assay [5]; 12.6 µM in assay [6]. Besides, the GI50 in assay [7] is 16.1 µM. Besides, the TGI was 29.7 µM in assay [1]; 7.2 µM in assay [2]; 29.9 µM in assay [3]; 29.5 µM in assay [4]; 31 µM in assay [5]; 42.3 µM in assay [6]. This compound also had a TGI in assay [7] of 29.8 µM.
For the compound `O=C(NCC1CCCO1)c1ccc(NC2=C(Cl)C(=O)N(Cc3ccccc3)C2=O)cc1` (centres undefined), the GI50 was 2.93 µM in assay [8]; 20.6 µM in assay [2]; 11.8 µM in assay [3]; 6.4 µM in assay [4]; 16.8 µM in assay [5]; 15.5 µM in assay [6]. In assay [7], the GI50 is 16.6 µM. Also, the TGI in assay [8] came to 7.52 µM; in assay [2], 50.8 µM; in assay [3], 26.7 µM; in assay [4] it was 21.5 µM; in assay [5] it was 46.6 µM; in assay [6], 46.5 µM. In assay [7], this compound gave a TGI of 32.8 µM.
`CCCCCCCCCC[C@H](O)[C@H](O)CC[C@@H](O)[C@H]1CC[C@@H]([C@H]2CC[C@H](CCCCCCC[C@@H](O)CC3=C[C@H](C)OC3=O)O2)O1`: the TGI in assay [1] is 48.3 µM; in assay [2], 83 µM; in assay [5], 7.79 µM and 69.2 µM; in assay [6], 29.6 µM; in assay [7], more than 100 µM. Further, the GI50 in assay [8] was 25.8 µM; in assay [2], 42.5 µM; in assay [3] it was 21.2 µM; in assay [5], 19.4 µM; in assay [6], 0.39 µM; in assay [7], 47.7 µM.
For the compound `COc1cccc(Nc2nc3ccccc3c3occc23)c1`, the GI50 is 4.95 µM in assay [8]; 4.46 µM in assay [2]; 13 µM in assay [4]; 8.53 µM in assay [5]; 25.2 µM in assay [6]; 14.1 µM in assay [7]. Moreover, the concentration for total growth inhibition (TGI) is 25.9 µM in assay [8]; 19.8 µM in assay [2]; 31.1 µM in assay [4]; 31.6 µM in assay [5]; more than 100 µM in assay [6]; 32.9 µM in assay [7].
Turning to `Nc1nc(/C=C\c2ccccc2)nc(N2CCN(c3ccccc3)CC2)n1`, the GI50 in assay [8] was 22.9 µM; in assay [2], 21.6 µM; in assay [3] it was 27.9 µM; in assay [4], 21 µM; in assay [5] it was 19.2 µM; in assay [6] it was 24.5 µM. In addition, in assay [7], the GI50 was 58.7 µM. The TGI in assay [8] was 69.8 µM; in assay [2] it was 49.2 µM; in assay [3], 94.5 µM; in assay [4] it was 93.3 µM; in assay [5], 53.4 µM; in assay [6] it was more than 100 µM. This compound yielded a concentration for total growth inhibition (TGI) in assay [7] of more than 100 µM.
Regarding `CN1CCN(C(=O)COc2ccc(/C=C3\CC4C5CC=C6CC(Cl)CCC6(C)C5CCC4(C)C3=O)cc2)CC1` (centres undefined), the GI50 in assay [1] was more than 100 µM; in assay [8], more than 100 µM; in assay [2] it was 14.3 µM; in assay [3], more than 100 µM; in assay [4], 10.4 µM; in assay [5], more than 100 µM. The GI50 in assay [7] was more than 100 µM. The TGI in assay [1], in assay [8], in assay [2], in assay [3], in assay [4] and in assay [5] was more than 100 µM in each case. In assay [7], this compound displayed a TGI of more than 100 µM.
Regarding `O=[N+]([O-])c1cc([N+](=O)[O-])c(Nn2c3ccccc3c3ccccc32)c([N+](=O)[O-])c1`, the GI50 was 0.236 µM in assay [1]; 0.418 µM in assay [8]; 0.272 µM in assay [2]; 0.357 µM in assay [3]; 0.342 µM in assay [6]; 0.338 µM in assay [7]. For the same compound, the TGI in assay [1] was 4.88 µM and 0.733 µM; in assay [8], 25.4 µM and 21.2 µM; in assay [2], 1.24 µM; in assay [3] it was 7.5 µM; in assay [4], 2.81 µM; in assay [6], 13 µM and 1.93 µM. The total growth inhibition concentration (TGI) in assay [7] was 26.7 µM and 13.5 µM.
Regarding `CCOC(=O)C(C#N)C1=CC(=O)C(=O)c2ccc(O)cc21` (centres undefined), the total growth inhibition concentration (TGI) in assay [1], in assay [8], in assay [2], in assay [3], in assay [5] and in assay [6] was more than 100 µM in each case. Besides, the concentration for total growth inhibition (TGI) in assay [7] is more than 100 µM.
As for `CC1=CC(C)(C)NN1C1=NS(=O)(=O)c2ccccc2N1C`, the TGI in assay [8], in assay [2], in assay [3], in assay [4], in assay [5] and in assay [6] was more than 100 µM in each case. In assay [7], the TGI was more than 100 µM.
For the compound `O=C1O/C(=C/c2ccccc2)C(c2ccccc2)=C1O`, the TGI in assay [1] was more than 100 µM; in assay [8] it was more than 100 µM; in assay [2], 70.3 µM; in assay [3] it was more than 100 µM; in assay [4], more than 100 µM; in assay [5], more than 100 µM. Moreover, in assay [7], the TGI was more than 100 µM.
Turning to `COC(=O)c1cc2c3ccccc3n3c2c(n1)-c1[nH]c2ccccc2c(=O)c1C3`, the GI50 in assay [1] is more than 100 µM; in assay [8] it was 24.6 µM; in assay [2], 16.3 µM; in assay [4], 11.4 µM; in assay [5], 33.7 µM; in assay [6], more than 100 µM. Also, in assay [7], the GI50 is more than 100 µM. In addition, the total growth inhibition concentration (TGI) was more than 100 µM in assay [1]; more than 100 µM in assay [8]; 66.9 µM in assay [2]; 29.3 µM in assay [4]; more than 100 µM in assay [5]; more than 100 µM in assay [6]. The compound further registered a TGI in assay [7] of more than 100 µM.
For `C/C=C1/CC(C)C(C)(O)C(=O)OCC2C(O)CN3CCC(OC1=O)C23` (centres undefined), the total growth inhibition concentration (TGI) in assay [8], in assay [2], in assay [3], in assay [4], in assay [5] and in assay [6] was more than 100 µM throughout. The TGI in assay [7] was more than 100 µM.
